Measured values reported in patent US5506359A, “Cocaine analogues and their use as cocaine drug therapies and therapeutic and imaging agents for neurodegenerative disorders” (priority 1993, dated 1996).

Legend:
[1] = biological target: dopamine transporter, human caudate nucleus and putamen (Homo sapiens, UniProt Q01959); experiment: [^3 H]CFT binding to homogenates of human caudate nucleus and putamen; details: human caudate nucleus and putamen homogenates
Source text: In order to determine whether [^3 H]CFT labels sites associated with the dopamine transporter, the binding of [^3 H]CFT to homogenates of human caudate nucleus and putamen, was characterized.

[2] = tested on: squirrel monkeys (i.v. drug self-administration); experiment: Drug self-administration under second order schedule; assay type: in vivo, squirrel monkeys (Saimiri sciureus)
Source text: To determine whether CFT also mimicked cocaine's behavioral effects in vivo (specifically the reinforcing and interoceptive effects), squirrel monkeys were trained to respond under a second order schedule of i.v. drug self-administration (see detailed description below). […] The results were consistent with the view that the reinforcing effects of cocaine are mediated by cocaine recognition sites associated with the dopamine uptake system.
For drug discrimination and self administration studies, experiments are conducted with rodents or squirrel monkeys (Saimiri sciureus) seated in standard primate chairs enclosed in ventilated, sound-attenuating chambers. The chairs are equipped with response levers, stimulus lights, food pellet dispensers, and pumps for injecting drugs intravenously. […] Response rates and temporal patterns of responding are monitored continuously during daily experimental sessions. Effects of drugs are analyzed in individual subjects by comparing performances during drug sessions with those during control sessions. […]
Initially, responding is maintained using an injection dose of 100 μg/kg cocaine, which usually is optimal for developing i.v. self-administration.After consistent rates and patterns of responding are maintained by cocaine, the effects of a full range of doses of cocaine and of selected candidate drugs is determined. […]

[3] = tested on: [^3 H]CFT binding sites in monkey caudate-putamen; details: cited from earlier work
[4] = tested on: squirrel monkeys trained to discriminate cocaine; experiment: Drug discrimination (cocaine versus saline); assay type: in vivo, squirrel monkeys (Saimiri sciureus); details: training dose cocaine 0.3-0.56 mg/kg
Description: The subjective (interoceptive) effects of cocaine were studied in monkeys through the use of a drug discrimination procedure. […] Squirrel monkeys were trained to discriminate cocaine (0.3-0.56 mg/kg) from saline using a two-level choice procedure.
For drug discrimination and self administration studies, experiments are conducted with rodents or squirrel monkeys (Saimiri sciureus) seated in standard primate chairs enclosed in ventilated, sound-attenuating chambers. The chairs are equipped with response levers, stimulus lights, food pellet dispensers, and pumps for injecting drugs intravenously. Four animals are studied in each experiment, with each subject receiving all drug treatments whenever possible. Response rates and temporal patterns of responding are monitored continuously during daily experimental sessions. Effects of drugs are analyzed in individual subjects by comparing performances during drug sessions with those during control sessions. […]
Drug discrimination experiments are conducted using cumulative-dose procedures similar to those described in Madras et al. (Soc. Neurosci. Abst. 16:14, 1990; Pharmacol. Biochem. Behav. 35:949-953, 1990) and Spealman et al. (J. Pharmacol. Exp. Ther. 258:945-953, 1991). […] Good agreement has been found between the effects of drugs determined by cumulative-dose procedures and by single-dose procedures when appropriate parameters are selected. […]

dopamine transporter, human caudate nucleus and putamen, sequence (Q01959 whole entry): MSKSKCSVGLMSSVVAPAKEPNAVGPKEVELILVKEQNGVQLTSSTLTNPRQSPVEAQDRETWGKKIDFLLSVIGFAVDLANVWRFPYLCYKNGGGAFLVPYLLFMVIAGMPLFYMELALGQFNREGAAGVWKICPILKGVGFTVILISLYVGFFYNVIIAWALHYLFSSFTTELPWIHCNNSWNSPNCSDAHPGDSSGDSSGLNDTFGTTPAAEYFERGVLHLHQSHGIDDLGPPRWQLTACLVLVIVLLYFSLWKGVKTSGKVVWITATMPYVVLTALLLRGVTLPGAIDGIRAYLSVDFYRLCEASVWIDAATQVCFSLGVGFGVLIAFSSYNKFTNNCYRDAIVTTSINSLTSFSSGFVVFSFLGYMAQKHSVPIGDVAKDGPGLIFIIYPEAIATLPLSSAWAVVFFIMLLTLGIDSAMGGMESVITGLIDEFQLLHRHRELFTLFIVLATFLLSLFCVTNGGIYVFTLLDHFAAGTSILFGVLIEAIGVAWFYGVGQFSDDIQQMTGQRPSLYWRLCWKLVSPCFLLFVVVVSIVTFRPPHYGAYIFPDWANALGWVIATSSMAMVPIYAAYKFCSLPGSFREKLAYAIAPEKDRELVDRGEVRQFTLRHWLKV

For `COC(=O)[C@H]1[C@@H](c2ccc(F)cc2)C[C@@H]2CC[C@H]1N2C` [4'a (CFT), 2β-carbomethoxy-3β-(4-fluorophenyl)tropane], the “rank order of potency for inhibiting [^3 H]CFT binding” value [1] is listed as “Lu 19-005>CFT, mazindol, GBR 12909>(-)-cocaine>bupropion>(+)-cocaine”, the “potency in maintaining responding relative to cocaine” value [2] is listed as “approximately six” and the “extent of displacement of [^3 H]CFT” value [3] is listed as “full displacement of [^3 H]CFT”. The “number of binding components” value ([3]; competition curves) was “at least two binding components”, the “steepness of competition curve” value ([3]; displacement of [^3 H]CFT) was 0.61-0.89 and the “generalization to cocaine cue” value [4] was “fully generalized to the cocaine cue”.
